In patent US8912216B2, “Hetaryl-[1,8]naphthyridine derivatives” (Merck Patent GmbH, priority 2010, dated 2014):
Counter-ions that a name gives are not always drawn. Like-named read-outs stand apart in the source and are kept apart here.

Columns and labels:
[1] = target: T1, GST-ALK5 (Homo sapiens, UniProt P36897); assay: In-vitro (enzyme) kinase assay, 384-well flashplate (Example 36); type: biochemical; details: GST-ALK5, GST-SMAD2 substrate, 3 mM ATP, 30° C., 45 min; read-out: TβR activity (Example 36)
T1 sequence (P36897 34-503): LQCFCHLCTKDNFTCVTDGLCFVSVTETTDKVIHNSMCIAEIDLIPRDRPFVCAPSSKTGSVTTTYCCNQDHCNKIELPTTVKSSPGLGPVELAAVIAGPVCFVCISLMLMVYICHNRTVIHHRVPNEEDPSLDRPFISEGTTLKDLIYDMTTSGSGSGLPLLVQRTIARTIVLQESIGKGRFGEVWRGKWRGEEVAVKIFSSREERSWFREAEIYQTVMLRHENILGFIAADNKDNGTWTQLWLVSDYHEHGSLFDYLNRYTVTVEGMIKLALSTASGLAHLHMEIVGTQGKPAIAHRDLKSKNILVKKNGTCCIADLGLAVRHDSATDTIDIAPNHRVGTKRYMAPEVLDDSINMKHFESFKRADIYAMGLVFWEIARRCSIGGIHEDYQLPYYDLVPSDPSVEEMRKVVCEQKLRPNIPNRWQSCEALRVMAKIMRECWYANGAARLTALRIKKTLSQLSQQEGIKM
Method: In-vitro (Enzyme) Assay for Determination of the Efficacy of Inhibitors of the Inhibition of TGF-beta-Mediated Effects
The kinase assay was carried out as 384-well flashplate assay. 31.2 nM of GST-ALK5, 439 nM of GST-SMAD2 and 3 mM of ATP (with 0.3 μCi of ^33P-ATP/well) were incubated in a total volume of 35 μl (20 mM of HEPES, 10 mM of MgCl2, 5 mM of MnCl2, 1 mM of DTT, 0.1 of BSA, pH 7.4) without or with test substance (5-10 concentrations) at 30° C. for 45 min. The reaction was stopped using 25 μl of 200 mM EDTA solution, filtered with suction at room temperature after 30 min, and the wells were washed with 3 times 100 μl of 0.9% NaCl solution. Radioactivity was measured in the TopCount. The IC50 values were calculated using RS1.

[2] = system: TGF-beta-induced phosphorylation of Smad2 and Smad3 in Mv1-Lu cells; assay: Inhibition of Smad2/3 phosphorylation in Mv1Lu cells (Example 35A); type: cell-based, mink Mustela vison; details: Neogale vison, read-out: TβR activity (Example 35A)
Method: Inhibition of Smad2/3 Phosphorylation in Mv1Lu Cells by TGF-bta Receptor I Kinase Inhibitors
This assay was used to determine the inhibitory potency of compounds on TGF-beta-induced phosphorylation of Smad2 (Ser465/467) and Smad3 (Ser423/425). Mv1-Lu cells (lung epithelial cell line from mink Mustela vison; ATCC number: CCL-64) were seeded in DMEM (Invitrogen) supplemented with 10% fetal bovine serum (Pan Biotech) at a defined cell density in 24-well or 96-well plates (24-well plate: 1.5×10^5 cells per well; 96-well plate: 4×10^4 cells per well). Cell cultures were incubated in DMEM at 37° C. and 10% CO2. On the next day, the medium was replaced and cells were serum-starved for 16-20 hours. The following day, serial dilutions of compounds were added to the wells, pre-incubated for 1.5 hrs before recombinant TGF-beta 1 ligand (final concentration 5 ng/ml; R&D systems) was added. After one hour of ligand stimulation, lysates were prepared and analyzed using an enzyme-linked immunosorbent assay kit (PathScan Phospho-Smad2 Kit, Cell Signaling Technologies). The ELISA detects phosphorylated Smad2 as well as phosphorylated Smad3 with the phospho-specific antibody. TGF-beta stimulated cells and unstimulated cells served as positive and negative controls (100% and background control). The concentration of the vehicle DMSO was kept constant at 0.2% (v/v) in all wells. Dose-response relationships were fitted using curve fitting algorithms of the RS1 statistics software package (Brooks Automation Inc. RS/1—Statistical Tools Handbook. Release 6.2) to determine the concentration at which half-maximal inhibition (IC50) of Smad2/3 phosphorylation was achieved.

[3] = Mv1-Lu cells, TGF-beta 1 5 ng/ml, phospho-Smad2/3 ELISA

Row | SMILES | IC50 [1] [nM] | IC50 [2, 3] [nM] | IC50 [2] [nM]
1 | Fc1ccc(C(F)(F)F)cc1-c1cc(-c2cncc(-c3cnn(CCN4CCCC4)c3)c2)c2cccnc2n1 [compound 19, 2-(2-Fluoro-5-trifluoromethyl-phenyl)-4-{5-[1-(2-pyrrolidin-1-yl-ethyl)-1H-pyrazol-4-yl]-pyridin-3-yl}-[1,8]naphthyridine] | < 100 | < 100 | 
2 | Fc1ccc(Cl)cc1-c1cc(-c2ccnc(-c3ccccc3)c2)c2cccnc2n1 [compound 20, 2-(5-Chloro-2-fluoro-phenyl)-4-(2-phenyl-pyridin-4-yl)-[1,8]naphthyridine] | > 10000 | > 10000 | 
3 | Fc1ccc(Cl)cc1-c1cc(-c2cncc(-c3cnn(CCN4CCCC4)c3)c2)c2cccnc2n1 [compound 21, 2-(5-Chloro-2-fluoro-phenyl)-4-{5-[1-(2-pyrrolidin-1-yl-ethyl)-1H-pyrazol-4-yl]-pyridin-3-yl}-[1,8]naphthyridine] | < 100 | < 100 | 
4 | Cn1cc(-c2cc(-c3cc(-c4cc(Cl)ccc4F)nc4ncccc34)c[n+]([O-])c2)cn1 [compound 22, 2-(5-chloro-2-fluoro-phenyl)-4-[5-(1-methyl-1H-pyrazol-4-yl)-1-oxy-pyridin-3-yl]-[1,8]naphthyridine] | 1000 to 10000 | 1000 to 10000 | 
5 | CN1CCC(n2cc(-c3cncc(-c4cc(-c5cc(C(F)(F)F)ccc5F)nc5ncccc45)c3)cn2)CC1 [compound 23, 2-(2-fluoro-5-trifluoromethyl-phenyl)-4-{5-[1-(1-methyl-piperidin-4-yl)-1H-pyrazol-4-yl]-pyridin-3-yl}-[1,8]naphthyridine] | < 100 | < 100 | 
6 | Fc1ccccc1-c1cc(-c2cncc(-c3cnn(CCN4CCCC4)c3)c2)c2cccnc2n1 [compound 24, 2-(2-Fluoro-phenyl)-4-{5-[1-(2-pyrrolidin-1-yl-ethyl)-1H-pyrazol-4-yl]-pyridin-3-yl}-[1,8]naphthyridine] | < 100 | < 100 | 
7 | CN1CCC(n2cc(-c3cncc(-c4cc(-c5cc(Cl)ccc5F)nc5ncccc45)c3)cn2)CC1 [compound 25, 2-(5-chloro-2-fluoro-phenyl)-4-{5-[1-(1-methyl-piperidin-4-yl)-1H-pyrazol-4-yl]-pyridin-3-yl}-[1,8]naphthyridine] | < 100 |  | < 100
8 | Fc1ccc(F)c(-c2cc(-c3cncc(-c4cnn(CCN5CCCC5)c4)c3)c3cccnc3n2)c1 [compound 26, 2-(2,5-Difluoro-phenyl)-4-{5-[1-(2-pyrrolidin-1-yl-ethyl)-1H-pyrazol-4-yl]-pyridin-3-yl}-[1,8]naphthyridine] | < 100 | < 100 | 
9 | Fc1ccccc1-c1cc(-c2cncc(-c3cnn(C4CCNCC4)c3)c2)c2cccnc2n1 [compound 29, 2-(2-Fluoro-phenyl)-4-[5-(1-piperidin-4-yl-1H-pyrazol-4-yl)-pyridin-3-yl]-[1,8]naphthyridine dihydrochloride] | < 100 |  | < 100
10 | CN1CCC(n2cc(-c3cncc(-c4cc(-c5ccccc5F)nc5ncccc45)c3)cn2)CC1 [compound 30, 2-(2-fluoro-phenyl)-4-{5-[1-(1-methyl-piperidin-4-yl)-1H-pyrazol-4-yl]-pyridin-3-yl}-[1,8]naphthyridine] | < 100 | < 100 | 
11 | Cn1cc(-c2cc(-c3cc(-c4cc(Cl)ccc4F)nc4ncccc34)cnc2N)cn1 [compound 31, 5-[2-(5-chloro-2-fluoro-phenyl)-[1,8]naphthyridin-4-yl]-3-(1-methyl-1H-pyrazol-4-yl)-pyridin-2-ylamine] | 1000 to 10000 | > 10000 | 
12 | Fc1ccc(C(F)(F)F)cc1-c1cc(-c2cncc(-c3cnn(CCN4CCOCC4)c3)c2)c2cccnc2n1 [compound 34, 2-(2-Fluoro-5-trifluoromethyl-phenyl)-4-{5-[1-(2-morpholin-4-yl-ethyl)-1H-pyrazol-4-yl]-pyridin-3-yl}-[1,8]naphthyridine] | < 100 | 100 to 1000 | 
13 | CN1CCC(n2cc(-c3cncc(-c4cc(-c5cc(F)ccc5F)nc5ncccc45)c3)cn2)CC1 [compound 35, 2-(2,5-Difluoro-phenyl)-4-{5-[1-(1-methyl-piperidin-4-yl)-1H-pyrazol-4-yl]-pyridin-3-yl}-[1,8]naphthyridine] | < 100 | < 100 | 
14 | OCCn1cc(-c2cncc(-c3cc(-c4cc(C(F)(F)F)ccc4F)nc4ncccc34)c2)cn1 [compound 37, 2-(4-{5-[2-(2-Fluoro-5-trifluoromethyl-phenyl)-[1,8]naphthyridin-4-yl]-pyridin-3-yl}-pyrazol-1-yl)-ethanol] | < 100 | 100 to 1000 | 
15 | COCCN1CCC(n2cc(-c3cncc(-c4cc(-c5cc(Cl)ccc5F)nc5ncccc45)c3)cn2)CC1 [compound 44, 2-(5-chloro-2-fluoro-phenyl)-4-(5-{1-[1-(2-methoxy-ethyl)-piperidin-4-yl]-1H-pyrazol-4-yl}-pyridin-3-yl)-[1,8]naphthyridine] | < 100 | < 100 | 
16 | OCCN1CCC(n2cc(-c3cncc(-c4cc(-c5cc(Cl)ccc5F)nc5ncccc45)c3)cn2)CC1 [compound 45, 2-[4-(4-{5-[2-(5-Chloro-2-fluoro-phenyl)-[1,8]naphthyridin-4-yl]-pyridin-3-yl}-pyrazol-1-yl)-piperidin-1-yl]-ethanol] | < 100 | < 100 | 
17 | CCN1CCC(n2cc(-c3cncc(-c4cc(-c5cc(Cl)ccc5F)nc5ncccc45)c3)cn2)CC1 [compound 46, 2-(5-Chloro-2-fluoro-phenyl)-4-{5-[1-(1-ethyl-piperidin-4-yl)-1H-pyrazol-4-yl]-pyridin-3-yl}-[1,8]naphthyridine] | < 100 | < 100 | 
18 | Fc1ccc(F)c(-c2cc(-c3cncc(-c4cnn(C5CCNCC5)c4)c3)c3cccnc3n2)c1 [compound 47, 2-(2,5-Difluoro-phenyl)-4-[5-(1-piperidin-4-yl-1H-pyrazol-4-yl)-pyridin-3-yl]-[1,8]naphthyridine] | < 100 | < 100 | 
19 | Fc1ccc(F)c(-c2cc(-c3cncc(-c4cnn(CCCN5CCOCC5)c4)c3)c3cccnc3n2)c1 [compound 48, 2-(2,5-Difluoro-phenyl)-4-{5-[1-(3-morpholin-4-yl-propyl)-1H-pyrazol-4-yl]-pyridin-3-yl}-[1,8]naphthyridine] | < 100 | 100 to 1000 | 
20 | Cc1cccc(-c2cc(-c3cncc(-c4cnn(C5CCN(C)CC5)c4)c3)c3cccnc3n2)n1 [compound 49, 4-{5-[1-(1-Methyl-piperidin-4-yl)-1H-pyrazol-4-yl]-pyridin-3-yl}-2-(6-methyl-pyridin-2-yl)-[1,8]naphthyridine] | < 100 | < 100 | 
21 | COCCN1CCC(n2cc(-c3cncc(-c4cc(-c5cc(F)ccc5F)nc5ncccc45)c3)cn2)CC1 [compound 50, 2-(2,5-Difluoro-phenyl)-4-(5-{1-[1-(2-methoxy-ethyl)-piperidin-4-yl]-1H-pyrazol-4-yl}-pyridin-3-yl)-[1,8]naphthyridine] | < 100 | < 100 | 
22 | CN1CCC(n2cc(-c3cncc(-c4cc(-c5cc(Cl)ccc5F)nc5ncccc45)n3)cn2)CC1 [compound 51, 2-(5-Chloro-2-fluoro-phenyl)-4-{6-[1-(1-methyl-piperidin-4-yl)-1H-pyrazol-4-yl]-pyrazin-2-yl}-[1,8]naphthyridine] | < 100 | < 100 | 
